The data set in a line: Simulation experiment of in vitro transdermal drug delivery in pig skin (Franz diffusion cell). Type of data set: in vitro ADME. The following applies: 37° C. The text has this: Simulation experiment of in vitro transdermal drug delivery in pig skin:
(1) pig skin with a thickness of 300-500 μm and an area of 1.0 cm^2 was selected and placed between the Franz diffusion cell supply cell and the Franz diffusion cell receiving cell. An […] side of the pig skin was oriented toward the supply cell, and then the patch apparatus was placed in the supply cell and was attached to the epidermis of the pig skin. The receiving cell was filled with phosphate buffered saline to simulate blood circulation, and the temperature in the receiving cell was maintained at 37° C. to simulate human body temperature.
(2) Set the electric quantity: 0.1 mA, the conduction time is 24 hours as desired. Press a power switch of the patch apparatus.

Setting [1] is: this method/apparatus, quantity of electric charge 2.4 mA * hour (0.1 mA, 24 hours).
Where [2] appears, read: traditional patch, quantity of electric charge 0 mA * hour, 24 hours.

The values that follow come from US11511095B2, “Portable transdermal administration patch apparatus and preparation method thereof” (CHANGZHOU HUALIAN HEALTH DRESSING LTD., priority 2017, dated 2022).

As to `Cc1nccn1CC1CCc2c(c3ccccc3n2C)C1=O` (stereo not shown) [ondansetron], under setting [1], the “Administration dosage (μg/cm^2 skin area contacted by the drug formulation)” value is reported as 53.2 μg/cm^2 and the Administration speed is 1.8 μg/(cm^2 * h). Further, under setting [2], the “Administration dosage (μg/cm^2 skin area contacted by the drug formulation)” value was 1.2 μg/cm^2 and the Administration speed is recorded as 0.1 μg/(cm^2 * h).
